In the supplement of paper PMC10307832:

How the values were obtained:
Experiment in all cases: relative viability (nuclei count vs DMSO), 5 days (fraction); higher = more cells survive
MK-8033 + Vorinostat = compound: Cn1cc(-c2cnc3ccc4ccc(CS(=O)(=O)NCc5ccccn5)cc4c(=O)c3c2)cn1 [MK-8033] + O=C(CCCCCCC(=O)Nc1ccccc1)NO [Vorinostat] (partner 1 µM)
Method in brief: (§1)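 After 5 days of treatment, lung cancer cells in 1536-well plates were fixed and stained in a single step (final 0.05% Triton X-100, 1% formaldehyde, 1 ug/ml Hoechst) and their nuclei counted on 4× images. Treatment had been applied by pin tool the day after seeding as one drug alone or as a fixed anchor-drug dose with five library-drug doses (not always all listed) in √10 steps. Relative viability is the nuclei count of treated wells divided by that of vehicle wells, and values are medians of duplicate plates.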

Irinotecan + Decitabine = compound: CCc1c2c(nc3ccc(OC(=O)N4CCC(N5CCCCC5)CC4)cc13)-c1cc3c(c(=O)n1C2)COC(=O)[C@]3(O)CC [Irinotecan] + Nc1ncn([C@H]2C[C@H](O)[C@@H](CO)O2)c(=O)n1 [Decitabine] (partner 2 µM)
Method in brief: as §1

MK-8033 + Palbociclib = compound: Cn1cc(-c2cnc3ccc4ccc(CS(=O)(=O)NCc5ccccn5)cc4c(=O)c3c2)cn1 [MK-8033] + CC(=O)c1c(C)c2cnc(Nc3ccc(N4CCNCC4)cn3)nc2n(C2CCCC2)c1=O [Palbociclib] (partner 0.5 µM)
Method in brief: as §1

Irinotecan + Alpelisib = compound: CCc1c2c(nc3ccc(OC(=O)N4CCC(N5CCCCC5)CC4)cc13)-c1cc3c(c(=O)n1C2)COC(=O)[C@]3(O)CC [Irinotecan] + Cc1nc(NC(=O)N2CCC[C@H]2C(N)=O)sc1-c1ccnc(C(C)(C)C(F)(F)F)c1 [Alpelisib] (partner 2 µM)
Method in brief: as §1

Cell Line | relative viability (MK-8033 + Vorinostat; first compound 0.02 µM) | relative viability (MK-8033 + Vorinostat; first compound 0.06325 µM) | relative viability (MK-8033 + Vorinostat; first compound 0.2 µM) | relative viability (MK-8033 + Vorinostat; first compound 0.6325 µM) | relative viability (MK-8033 + Vorinostat; first compound 2 µM) | relative viability (Irinotecan + Decitabine; first compound 0.6325 µM) | relative viability (Irinotecan + Decitabine; first compound 2 µM) | relative viability (Irinotecan + Decitabine; first compound 6.325 µM) | relative viability (Irinotecan + Decitabine; first compound 20 µM) | relative viability (MK-8033 + Palbociclib; first compound 0.02 µM) | relative viability (MK-8033 + Palbociclib; first compound 0.06325 µM) | relative viability (MK-8033 + Palbociclib; first compound 0.2 µM) | relative viability (MK-8033 + Palbociclib; first compound 0.6325 µM) | relative viability (MK-8033 + Palbociclib; first compound 2 µM) | relative viability (Irinotecan + Alpelisib; first compound 0.6325 µM) | relative viability (Irinotecan + Alpelisib; first compound 2 µM) | relative viability (Irinotecan + Alpelisib; first compound 6.325 µM) | relative viability (Irinotecan + Alpelisib; first compound 20 µM)
NCI-H1975 | 0.713 | 0.669 | 0.634 | 0.695 | 0.752 | 0.374 | 0.438 | 0.342 | 0.141 | 0.579 | 0.469 | 0.51 | 0.339 | 0.602 | 0.654 | 0.68 | 0.324 | 0.195
NCI-H1755 | 0.748 | 0.791 | 0.75 | 0.678 | 0.766 | 0.58 | 0.503 | 0.427 | 0.491 | 0.452 | 0.452 | 0.413 | 0.464 | 0.417 | 0.822 | 0.434 | 0.292 | 0.363
NCI-H2023 | 0.857 | 0.44 | 0.583 | 0.515 | 0.491 | 0.264 | 0.209 | 0.141 | 0.0603 | 0.39 | 0.279 | 0.236 | 0.214 | 0.174 | 0.607 | 0.468 | 0.202 | 0.0912
EKVX | 0.484 | 0.72 | 0.734 | 0.746 | 0.66 |  | 0.27 | 0.262 | 0.229 | 0.366 | 0.322 | 0.362 | 0.39 | 0.373 | 1.03 | 0.766 | 0.33 | 0.205
EPLC-272H | 0.434 | 0.332 | 0.38 | 0.422 | 0.551 |  | 0.33 | 0.223 | 0.151 | 0.299 | 0.356 | 0.352 | 0.274 | 0.349 | 0.44 | 0.203 | 0.183 | 0.267
LCLC-97TM1 | 0.662 | 0.48 |  | 0.825 | 0.761 | 0.135 | 0.107 | 0.105 | 0.115 | 0.243 | 0.221 |  | 0.232 | 0.216 | 0.105 | 0.165 | 0.154 | 0.224
NCI-H2085 | 0.744 | 0.734 | 0.691 | 0.835 | 0.764 | 0.536 | 0.391 | 0.38 | 0.382 | 0.468 | 0.479 | 0.499 | 0.484 | 0.474 | 0.888 | 0.75 | 0.458 | 0.482
COR-L23 | 0.423 | 0.408 | 0.385 | 0.459 | 0.491 | 0.314 | 0.336 | 0.192 | 0.104 | 0.239 | 0.29 | 0.27 | 0.304 | 0.326 | 0.324 | 0.238 | 0.158 | 0.119
HCC-15 | 0.898 | 0.767 | 0.752 | 0.738 | 0.798 | 0.363 | 0.45 | 0.381 | 0.14 | 0.748 | 0.625 | 0.722 | 0.699 | 0.738 | 0.478 | 0.239 | 0.144 | 0.173
RERF-LC-KJ | 0.726 | 0.599 | 0.664 | 0.707 | 0.597 | 0.539 | 0.792 | 0.482 | 0.154 | 1.11 | 1.07 | 1.01 | 1.08 | 1.08 |  | 0.835 | 0.501 | 0.454
PC-3 [JPC-3] | 0.886 |  | 0.77 | 0.924 | 0.817 | 0.805 | 0.927 | 0.655 | 0.365 | 0.506 |  | 0.505 | 0.516 | 0.554 | 0.814 | 0.413 | 0.319 | 0.305
NCI-H1355 | 0.62 | 0.549 | 0.62 | 0.658 | 0.592 |  | 0.27 | 0.19 | 0.242 | 0.372 | 0.379 | 0.375 | 0.415 | 0.381 | 0.711 | 0.4 | 0.222 | 0.237
NCI-H460 | 0.79 | 0.473 | 0.656 | 0.742 | 0.726 | 0.353 | 0.317 | 0.106 | 0.0426 | 0.162 | 0.147 | 0.103 | 0.177 | 0.172 | 0.461 | 0.339 | 0.0811 | 0.0821
LCLC-103H | 0.767 | 0.719 | 0.753 | 0.704 | 0.807 | 0.63 | 0.524 | 0.458 | 0.432 | 0.514 | 0.51 | 0.47 | 0.295 | 0.491 | 0.812 | 0.345 | 0.33 | 0.368
SK-LU-1 | 0.829 | 0.897 | 0.704 | 0.778 | 0.685 | 0.498 | 0.504 | 0.423 | 0.25 | 0.411 | 0.373 | 0.373 | 0.367 | 0.383 | 0.459 | 0.541 | 0.351 | 0.273
201T | 0.956 | 0.926 | 0.791 | 0.949 | 0.962 | 0.714 | 0.615 | 0.295 | 0.298 | 0.329 | 0.37 | 0.356 | 0.369 | 0.367 |  | 0.87 | 0.465 | 0.331
NCI-H441 | 0.795 | 0.738 | 0.823 | 0.706 | 0.732 | 0.208 | 0.166 | 0.227 | 0.324 | 0.182 | 0.189 | 0.217 | 0.275 | 0.238 | 0.68 | 0.513 | 0.336 | 0.5
SW 1573 | 0.836 | 0.681 | 0.7 | 0.729 | 0.667 | 0.445 | 0.511 | 0.173 | 0.0927 | 0.373 | 0.392 | 0.345 | 0.409 | 0.389 | 0.829 | 0.481 | 0.192 | 0.204
